Source: PMC7178833, “Preparation, carbonic anhydrase enzyme inhibition and antioxidant activity of novel 7-amino-3,4-dihydroquinolin-2(1H)-one derivatives incorporating mono or dipeptide moiety” (Journal of Enzyme Inhibition and Medicinal Chemistry, 2020)

How the values were obtained:
[1] = biological target: hCA IX (Homo sapiens, UniProt Q16790); assay: stopped flow CO2 hydrase assay, hCA IX; type: biochemical; conditions: mean from three different assays
Procedure: (§1) An Applied Photophysics Stopped-Flow instrument has been used for assaying the CA catalysed CO2 hydration activity by using method of Khalifah[21]. Phenol red (at a concentration of 0.2 mM) has been used as indicator, working at the absorbance maximum of 557 nm, with 20 mM HEPES (pH 7.5) as buffer and 20 mM Na2SO4 (for maintaining constant the ionic strength), following the initial rates of the CA-catalysed CO2 hydration reaction for a period of 10–100 s. The CO2 concentrations ranged from 1.7 to 17 mM for the determination of the kinetic parameters and inhibition constants. […] The uncatalysed rates were determined in the same manner and subtracted from the total observed rates. Stock solutions of inhibitor (0.1 mM) were prepared in distilled–deionised water and dilutions up to 0.01 nM were done thereafter with the assay buffer. Inhibitor and enzyme solutions were pre-incubated together for 15 min at room temperature prior to assay, in order to allow for the formation of the E–I complex. The inhibition constants were obtained by non-linear least-square methods using PRISM (www.graphpad.com), and non-linear least squares methods, values representing the mean of at least three different determinations, as described earlier by us[22–27].

[2] = biological target: hCA XII (Homo sapiens, UniProt O43570); assay: stopped flow CO2 hydrase assay, hCA XII; type: biochemical; conditions: mean from three different assays
Chain of hCA XII (O43570 25-354): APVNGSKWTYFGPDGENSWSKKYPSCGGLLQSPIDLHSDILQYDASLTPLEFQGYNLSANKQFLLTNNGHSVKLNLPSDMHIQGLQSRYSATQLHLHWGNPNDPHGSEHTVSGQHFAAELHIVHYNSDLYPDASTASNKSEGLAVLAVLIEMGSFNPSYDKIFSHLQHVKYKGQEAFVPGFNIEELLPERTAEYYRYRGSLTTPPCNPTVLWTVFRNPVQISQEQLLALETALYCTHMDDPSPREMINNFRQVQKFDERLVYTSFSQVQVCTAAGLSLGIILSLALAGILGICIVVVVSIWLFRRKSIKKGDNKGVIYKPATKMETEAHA
Procedure: as §1

[3] = DPPH radical scavenging activity
Procedure: Antioxidant activity was determined based on the ability of the antioxidants to act as radical scavengers towards the stable free radical, 1,1-diphenyl-2-picrylhydrazyl (DPPH). As detailed by Yang et al[28], 1 ml of antioxidant solution (solubilised in ethanol) was added to 3 ml of a 0.1 mM ethanolic solution of DPPH. After 30 min at ambient temperature in darkness, absorbance readings were taken at 517 nm. Inhibition (%) was calculated using the equation [1 – (As−Ao)/Ab]×100 where As was the absorbance reading for samples containing antioxidant, Ao was the absorbance of the antioxidant in pure methanol and Ab corresponded to the absorbance of the DPPH solution.
The antioxidant activity of the compounds was determined based on the ability of the antioxidants to act as radical scavengers towards the stable free radical, 1,1-diphenyl-2-picrylhydrazyl (DPPH)[28].

[4] = biological target: hCA II (Homo sapiens, UniProt P00918); assay: stopped flow CO2 hydrase assay, hCA II; type: biochemical; conditions: mean from three different assays, read-out: Ki hCAII
Procedure: as §1

[5] = biological target: hCA I (Homo sapiens, UniProt P00915); assay: stopped flow CO2 hydrase assay, hCA I; type: biochemical; conditions: mean from three different assays
Chain of hCA I (P00915 whole entry): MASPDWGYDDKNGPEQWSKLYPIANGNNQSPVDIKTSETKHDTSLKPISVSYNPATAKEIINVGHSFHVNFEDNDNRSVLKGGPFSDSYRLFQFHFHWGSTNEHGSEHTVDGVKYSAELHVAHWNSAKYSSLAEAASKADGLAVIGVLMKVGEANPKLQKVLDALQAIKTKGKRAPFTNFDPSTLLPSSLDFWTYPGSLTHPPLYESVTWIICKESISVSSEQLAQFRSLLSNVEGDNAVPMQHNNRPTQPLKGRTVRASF
Procedure: as §1

| Ki [1] [µM] | Ki [2] [µM] | Ki [4] [µM] | Ki [5] [µM] | melting point [°C] | Compound | Antioxidant activity, % ([3]; 12.5 μg/ml) [%] | Antioxidant activity, % ([3]; 25 μg/ml) [%] | Antioxidant activity, % ([3]; 37.5 μg/ml) [%] | Antioxidant activity, % ([3]; 62.5 μg/ml) [%] | Antioxidant activity, % ([3]; 125 μg/ml) [%] |
| --- | --- | --- | --- | --- | --- | --- | --- | --- | --- | --- |
| 42.6 | 8.5 | > 100 | > 100 | 171 to 172 | CSCC[C@H](NC(=O)OC(C)(C)C)C(=O)Nc1ccc2c(c1)NC(=O)CC2 (stereo in doubt) [Compound 3, Tert-butyl (S)-(4-(methylthio)-1-oxo-1-((2-oxo-1,2,3,4-tetrahydroquinolin-7-yl)amino)butan-2-yl)carbamate] | 0.9 | 0.3 |  |  |  |
| 41.2 | 3.8 | > 100 | > 100 | 180 to 181 | CC(C)(C)OC(=O)N[C@H](Cc1ccccc1)C(=O)Nc1ccc2c(c1)NC(=O)CC2 (stereo in doubt) [Compound 2, Tert-butyl (R)-(1-oxo-1-((2-oxo-1,2,3,4-tetrahydroquinolin-7-yl)amino)-3-phenylpropan-2-yl)carbamate] | 3.1 | 2.2 | 0.0 | 0.9 | 0.6 |
| 37.7 | 7 | > 100 | > 100 | 137 to 138 | CSCC[C@H](NC(=O)OCc1ccccc1)C(=O)Nc1ccc2c(c1)NC(=O)CC2 (stereo in doubt) [Compound 5, Benzyl (S)-(4-(methylthio)-1-oxo-1-((2-oxo-1,2,3,4-tetrahydroquinolin-7-yl)amino)butan-2-yl)carbamate] | 2.8 | 1.9 | 1.9 | 2.8 | 2.8 |

The remaining lines, values behind:

| Compound | Ki [1] [µM] | Ki [2] [µM] | Ki [4] [µM] | Ki [5] [µM] | melting point [°C] | Antioxidant activity, % ([3]; 12.5 μg/ml) [%] | Antioxidant activity, % ([3]; 25 μg/ml) [%] | Antioxidant activity, % ([3]; 37.5 μg/ml) [%] | Antioxidant activity, % ([3]; 62.5 μg/ml) [%] | Antioxidant activity, % ([3]; 125 μg/ml) [%] |
| --- | --- | --- | --- | --- | --- | --- | --- | --- | --- | --- |
| Benzyl ((R)-1-oxo-1-(((S)-1-oxo-1-((2-oxo-1,2,3,4-tetrahydroquinolin-6-yl)amino)-3-phenylpropan-2-yl)amino)-3-phenylpropan-2-yl)carbamate [Compound 6] | 47.6 | 8.6 | > 100 | > 100 |  | 1.9 | 6.3 | 8.8 | 16.4 |  |
| Cc1c(C)c2c(c(C)c1O)CC[C@@](C)(CCC[C@H](C)CCC[C@H](C)CCCC(C)C)O2 [α-Toc., α-tocopherol, reference compound] |  |  |  |  |  | 62.9 | 63.4 | 68.4 | 72.8 | 74.0 |
| C[C@@H](NC(=O)OC(C)(C)C)C(=O)Nc1ccc2c(c1)NC(=O)CC2 (stereo in doubt) [Compound 1, Tert-butyl (R)-(1-oxo-1-((2-oxo-1,2,3,4-tetrahydroquinolin-7-yl)amino)propan-2-yl)carbamate] | 86.8 | 2 | > 100 | > 100 | 197 to 198 | 3.8 | 2.2 | 2.5 | 1.6 | 0.6 |
| COc1ccc(O)c(C(C)(C)C)c1 [BHA, reference compound] |  |  |  |  |  | 61.1 | 63.0 | 67.5 | 71.0 | 72.4 |
| O=C1CCc2ccc(NC(=O)[C@H](CSc3ccccc3)NC(=O)OCc3ccccc3)cc2N1 (stereo in doubt) [Compound 4, Benzyl (R)-(1-oxo-1-((2-oxo-1,2,3,4-tetrahydroquinolin-7-yl)amino)-3-(phenylthio)propan-2-yl)carbamate] | 65.4 | 5.7 | > 100 | > 100 | 150 to 151 | 2.5 | 1.6 | 0.9 | 2.2 | 1.6 |
